Reference: ChEMBL document CHEMBL1201862, “PubChem BioAssay data set” (2004)
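Where inhibition never reached the appropriate level, the endpoint shown equals the highest concentration tested. Otherwise, values were interpolated linearly from a five-concentration, 48-hour dose response in 96-well plates. GI50 is the concentration that inhibits growth by half.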 Calls of active or inactive are those of the source. Cut-off read from the data, not from the text of the source: active = GI50 up to about 1.1 µM and inactive = higher.

Key:
Assay in all cases: DTP human tumour cell line panel, 48 h
SF-295 = system: SF-295
NCI-H522 = system: NCI-H522
A549 = system: A549
NCI/ADR-RES = system: NCI/ADR-RES
UACC-257 = system: UACC-257
NCI-H226 = system: NCI-H226
TK-10 = system: TK-10
SK-MEL-2 = system: SK-MEL-2
OVCAR-5 = system: OVCAR-5
SK-MEL-5 = system: SK-MEL-5
MOLT-4 = system: MOLT-4
DU-145 = system: DU-145
786-0 = system: 786-0
IGROV-1 = system: IGROV-1
COLO 205 = system: COLO 205
BT-549 = system: BT-549
CCRF-CEM = system: CCRF-CEM
HCT-116 = system: HCT-116
LOX IMVI = system: LOX IMVI
SF-268 = system: SF-268
MDA-N = system: MDA-N
HOP-62 = system: HOP-62
SNB-19 = system: SNB-19
SNB-75 = system: SNB-75
MDA-MB-435 = system: MDA-MB-435
PC-3 = system: PC-3
SN12C = system: SN12C
SF-539 = system: SF-539
OVCAR-3 = system: OVCAR-3
OVCAR-8 = system: OVCAR-8
K562 = system: K562
MCF7 = system: MCF7
RPMI-8226 = system: RPMI-8226
KM12 = system: KM12
HCC 2998 = system: HCC 2998
SK-OV-3 = system: SK-OV-3
HL-60 = system: HL-60
Malme-3M = system: Malme-3M
CAKI-1 = system: CAKI-1
SW-620 = system: SW-620
HCT-15 = system: HCT-15
MDA-MB-231 = system: MDA-MB-231
NCI-H23 = system: NCI-H23
RXF 393 = system: RXF 393
A498 = system: A498
M14 = system: M14
OVCAR-4 = system: OVCAR-4
U-251 = system: U-251
UO-31 = system: UO-31
HT-29 = system: HT-29
T47D = system: T47D
UACC-62 = system: UACC-62
ACHN = system: ACHN
SR = system: SR
Hs-578T = system: Hs-578T
HOP-92 = system: HOP-92
SK-MEL-28 = system: SK-MEL-28
EKVX = system: EKVX

O=C(NCCCNC(=O)c1ccc2c(O)c(O)ccc2c1)c1ccc2c(O)c(O)ccc2c1 was tested, and the GI50 (SF-295) was 19.2 µM (inactive), the GI50 (NCI-H522) was 23.8 µM (inactive) and the GI50 (A549) was 32.3 µM (inactive). For the same molecule, the GI50 (NCI/ADR-RES) was 38.1 µM (inactive), the GI50 (UACC-257) was 21.3 µM (inactive) and the GI50 (NCI-H226) was 63 µM (inactive). For the same molecule, the GI50 (TK-10) was 43.8 µM (inactive), the GI50 (SK-MEL-2) was 35.3 µM (inactive) and the GI50 (OVCAR-5) was 29.1 µM (inactive). The GI50 (SK-MEL-5) was 20.3 µM (inactive), the GI50 (MOLT-4) was 20.4 µM (inactive) and the GI50 (DU-145) was 71.1 µM (inactive). The GI50 (786-0) was 23.9 µM (inactive), the GI50 (IGROV-1) was 18.8 µM (inactive) and the GI50 (COLO 205) was 22.9 µM (inactive). The GI50 (BT-549) was 18.7 µM (inactive), the GI50 (CCRF-CEM) was 5.18 µM (inactive) and the GI50 (HCT-116) was 32.3 µM (inactive). For the same molecule, the GI50 (LOX IMVI) was 9.57 µM (inactive), the GI50 (SF-268) was 22.9 µM (inactive) and the GI50 (MDA-N) was 19.1 µM (inactive). The GI50 (HOP-62) was 21.2 µM (inactive), the GI50 (SNB-19) was 25.7 µM (inactive) and the GI50 (SNB-75) was 17.1 µM (inactive). For the same molecule, the GI50 (MDA-MB-435) was 15.1 µM (inactive), the GI50 (PC-3) was 47.1 µM (inactive) and the GI50 (SN12C) was 22.4 µM (inactive). For the same molecule, the GI50 (SF-539) was 28.1 µM (inactive), the GI50 (OVCAR-3) was 22.8 µM (inactive) and the GI50 (OVCAR-8) was 35.6 µM (inactive). The GI50 (K562) was 19.1 µM (inactive), the GI50 (MCF7) was 10.5 µM (inactive) and the GI50 (RPMI-8226) was 39.7 µM (inactive). The GI50 (KM12) was 18.3 µM (inactive), the GI50 (HCC 2998) was > 60.4 µM (inactive) and the GI50 (SK-OV-3) was > 100 µM (inactive). The GI50 (HL-60) was 6.32 µM (inactive), the GI50 (Malme-3M) was > 95.5 µM (inactive) and the GI50 (CAKI-1) was > 63 µM (inactive). For the same molecule, the GI50 (SW-620) was 25.5 µM (inactive), the GI50 (HCT-15) was 27.6 µM and the GI50 (MDA-MB-231) was 29.6 µM (inactive). The GI50 (NCI-H23) was 22.1 µM (inactive), the GI50 (RXF 393) was 27.3 µM (inactive) and the GI50 (A498) was > 48.3 µM (inactive). For the same molecule, the GI50 (M14) was 26.6 µM (inactive), the GI50 (OVCAR-4) was 57.5 µM (inactive) and the GI50 (U-251) was 24.1 µM (inactive). For the same molecule, the GI50 (UO-31) was 26.6 µM (inactive), the GI50 (HT-29) was 26.2 µM (inactive) and the GI50 (T47D) was > 100 µM (inactive). The GI50 (UACC-62) was 29.9 µM (inactive), the GI50 (ACHN) was 24.2 µM (inactive) and the GI50 (SR) was 15.1 µM (inactive). The GI50 (Hs-578T) was 18.5 µM (inactive), the GI50 (HOP-92) was 31 µM (inactive) and the GI50 (SK-MEL-28) was 97.9 µM (inactive). For the same molecule, the GI50 (EKVX) was 32.4 µM (inactive).
